The source of these data is patent US20240197828A1, “Chimeric molecule to treat sepsis and other inflammatory conditions” (THE FEINSTEIN INSTITUTES FOR MEDICAL RESEARCH, priority 2022, published 2024).

The test system of one test is RAW264.7 macrophages. Put plainly: Intracellular uptake of FITC-rmCIRP by macrophages (flow cytometry, confocal microscopy). The note with it: RAW264.7, FITC-rmCIRP 1 μg/mL co-incubated with test substance (peptide 10 μg/mL), 1 hour, vs FITC-rmCIRP alone. The format is cell-based, mouse. On the procedure:
FIG. 3. Effects of MOP peptides MOP-3, MOP-8 and MOP-14 on eCIRP. Flow cytometry experiment whereby RAW264.7 macrophages were treated for 1 hour according to respective group: PBS (volume-equivalent), FITC-rmCIRP (1 μg/mL), or a mixture of FITC-rmCIRP (1 μg/mL) with each respective peptide (10 μg/mL) after co-incubating for 30 minutes. Intracellular FITC-rmCIRP was analyzed by flow cytometry. Median fluorescence intensity (MFI) reported as percentage relative to PBS-treated RAW264.7 cells. Data from two independent experiments are expressed as mean±SEM and compared by one-way ANOVA and SNK test. *p<0.05 vs. PBS, #p<0.05 vs. eCIRP.
(§1) Computational modeling was used to determine the likely domain of MFG-E8's binding to eCIRP. The known amino acid (AA) sequence of this domain was used to develop and test potential therapeutic peptides. An MFG-E8 derived oligopeptide, MOP3, was developed based on 15 AA from MFG-E8 discoidin 2 domain (mimicking MFG-E8's C-terminal) and tagged with the 3 AA, RGD, (mimicking MFG-E8's binding capacity for the integrin receptor at the N-terminal). Binding of MOP3 to CIRP was quantified using Surface Plasmon Resonance (SPR) analysis. Macrophages (RAW264.7 cells) were treated with FITC-recombinant mouse (rm)-CIRP or co-incubated MOP3 and FITC-rmCIRP with and without a. Br-integrin Ab. After 1 h, cells were fixed and analyzed for intracellular FITC-rmCIRP by flow cytometry. Macrophages were stimulated with rmCIRP or co-incubated mixture of MOP3 and rmCIRP. After 4 h, cell culture supernatants were analyzed for inflammatory cytokine, TNFα.
Mouse macrophage cell line, RAW264.7 cells were obtained from American Type Culture Collection (ATCC) and cultured in DMEM media with 10% FBS, 1% penicillin and streptomycin, and 1% glutamine. Cells were kept in 37° C. incubator under humidified conditions containing 5% CO2.
rmCIRP was labeled using a FITC Conjugation Kit (Abcam, ab188285), and rmMFG-E8 was labeled using Alexa Fluor Conjugation Kit (Abcam, ab269821), both according to respective manufacturer's instructions.
In order to visualize cellular uptake, we initially utilized TRITC-BSA as an internal probe, as BSA is taken up into cells primarily by endocytosis and retained intracellularly after fixation (27, 28). For further visualization of intracellular localization, we utilized LAMP1 primary antibody (as it is distributed among endolysosomal organelles and serves as a marker for lysosomal compartments) (29), and utilized lysotracker in live cell experiments (as it allows for imaging of dynamics of lysosome vesicle movements) (30). RAW264.7 cells were treated in various conditions with rmCIRP, rmMFG-E8, and inhibitory antibody against auß3-integrin (Bioss antibodies, bs-1310R) for 4 hours. Cells were fixed with 4% paraformaldehyde (PFA), washed with 1×PBS, permeabilized using 0.3% Triton x100, and blocked using 5% BSA 100 mM Glycine in PBS prior to primary antibody treatment. After incubation with secondary antibodies, cells were washed and mounted with ProLong Gold antifade reagent (Invitrogen). For live cell imaging, cells remained in treatment conditions and were imaged under CO2. Staining procedures were performed according to the manufacturers' instructions utilizing respective fluorescent dyes and probes. For all imaging, confocal microscopy images were obtained using a Zeiss LSM880 confocal microscope equipped with a 63× objective. Images were quantified and analyzed using Image J, FIJI.(31) Flow cytometry.
To detect changes in internalized eCIRP in the presence of MFG-E8, RAW264.7 cells were seeded in 12-well plates (approximately 3×10^5 cells/well) and were treated with FITC-eCIRP. Treatment groups consisted of FITC-eCIRP, FITC-eCIRP with MFG-E8, FITC-eCIRP with MFG-E8 and αvβ3-integrin antibody (0.5 μg/mL), or FITC-eCIRP with MFG-E8 and IgG isotype (0.5 μg/mL). Similar experiments were conducted with MOP3 instead of MFG-E8 in parallel groups. […]
(In flow cytometry, cells or beads pass a laser one at a time.)

In the next test the test system is RAW264.7 cells. Put plainly: eCIRP-induced cytokine release in RAW264.7 cells (ELISA of supernatants). Format: cell-based, mouse. Particulars: RAW264.7, rmCIRP 1 μg/mL, 4 hours, vs rmCIRP alone. On the procedure: FIG. 2. Effects of MOP peptides on TNFα levels. RAW264.7 macrophages were cultured and treated with either volume-equivalent PBS, recombinant murine (rm) CIRP (eCIRP; 1 μg/mL), or rmCIRP with each respective peptide (10 μg/mL). After 4 hours, cell supernatants were assessed for TNFα levels by ELISA. Experiments were performed 3 times, and all data were used for analysis. Data are expressed as mean±SEM and compared by one-way ANOVA and SNK test. *p<0.05 vs. PBS, #p<0.05 vs. eCIRP.
FIG. 4. eCIRP-induced inflammation is attenuated by MOP3. RAW264.7 cells were treated according to respective groups: PBS (volume equivalent), rmCIRP (1 μg/mL), or rmCIRP with MOP3 at increasing doses. After 4 hours, cell supernatants were analyzed for TNFα levels by ELISA. Experiments were performed 3 times, and all data were used for analysis. Data are expressed as mean #SEM and compared by one-way ANOVA and SNK test. *p<0.05 vs. PBS, #p<0.05 vs. eCIRP.
as §1
Mouse macrophage cell line, RAW264.7 cells were obtained from American Type Culture Collection (ATCC) and cultured in DMEM media with 10% FBS, 1% penicillin and streptomycin, and 1% glutamine. Cells were kept in 37° C. incubator under humidified conditions containing 5% CO2. […]
The mouse macrophage cell culture supernatants were analyzed for cytokine levels using ELISA kits (BD Biosciences, CA). […] TNF-α and IL-6 levels were measured in cell supernatants by ELISA in accordance with respective manufacturers' instructions (BD Biosciences, CA). Blood was collected, centrifuged at 4,000 RPM for 10 minutes, and sera was separated and analyzed for cytokine levels using ELISA kits (BD Biosciences, CA). TNF-α and IL-6 levels in the serum were measured by ELISA in accordance with respective manufacturers' instructions.
A general note: In an ELISA, binding on a coated surface is turned into a signal by an enzyme label.

With “MOP3-modification to “RGT”: modified peptide whereby the Arg-Gly-Asp AAs of MOP3 were edited to Arg-Gly-Thr (RGT) (RGTSSSYKTWNLRAFGWY) [reference compound]”, the “intracellular FITC-rmCIRP uptake (flow cytometry)” value (“intracellular FITC-rmCIRP uptake” below) in the test on RAW264.7 macrophages is listed as “loss of ability to internalize FITC-eCIRP”.
With “RGDPFMARYVRVLPVSWH (listed as Mus musculus) [MOP14, RGD-tagged segment of murine MFG-E8 discoidin domain 2]”, the “intracellular FITC-rmCIRP uptake” value in the test on RAW264.7 macrophages is “only a single peptide screened, peptide-3, could increase intracellular uptake”. In addition, the “TNFα levels in cell supernatants” value in the test with RAW264.7 cells was “capable of attenuating TNFα release”.
For “RGDVTGIITQGARDFGHI (listed as Mus musculus) [MOP8, RGD-tagged segment of murine MFG-E8 discoidin domain 2]”, in the test on RAW264.7 macrophages, the “intracellular FITC-rmCIRP uptake” value is reported as “only a single peptide screened, peptide-3, could increase intracellular uptake”. Further, the “TNFα levels in cell supernatants” value with RAW264.7 cells is listed as “capable of attenuating TNFα release”.
